Assay results taken from patent publication US20070238617A1, “Diamino-1,3,5-triazines N-substituted with bicyclic radicals, process for their preparation, compositions thereof, and their use as herbicides and plant growth regulators” (Bayer CropScience AG, priority 2006, published 2007).

Experiments:
[1] = test system: harmful plants such as Sinapis alba, Echinochloa crus-galli, Lolium multiflorum, Stellaria media, Cyperus iria, Amaranthus retroflexus, Setaria viridis, Avena …; assay: Post-emergence effect on weeds (greenhouse pot test); format: in vivo; settings: application rate of 2 kg or less of active ingredient per hectare; sprayed in the three-leaf stage; scored visually after approx. 3 to 4 weeks vs untreated controls
Procedure: Seeds or rhizome pieces of monocotyledonous and dicotyledonous weeds were placed in sandy loam in plastic pots, covered with soil and grown in the greenhouse under good growth conditions. Three weeks after sowing, the test plants were treated in the three-leaf stage. Various dosages of the compounds according to the invention, which were formulated as wettable powders or emulsion concentrates, were sprayed to the green plant parts at an application rate of 600 to 800 l of water per ha (converted). After the test plants have been left to stand in the greenhouse for approx. 3 to 4 weeks under optimal growth conditions, the effect of the preparations was scored visually by comparison with untreated controls. Compound nos.

[2] = test system: harmful plants such as Stellaria media, Lolium multiforum, Amaranthus retroflexus, Sinapis alba, Avena sativa and Setaria viridis; assay: Pre-emergence effect on weeds (greenhouse pot test); format: in vivo; settings: application rate of 0.5 kg or less of active ingredient per hectare; applied to soil cover; scored visually after 3 to 4 weeks vs untreated controls
Excerpt: Seeds or rhizome pieces of monocotyledonous and dicotyledonous weed plants were placed in sandy loam in plastic pots and covered with soil. The compounds according to the invention, which were formulated in the form of wettable powders or emulsion concentrates, were then applied to the surface of the soil cover as aqueous suspension or emulsion at various dosages with an application rate of 600 to 800 l of water per ha (converted).

[3] = test system: plantation crops such as oil palm, coconut palm, India-rubber tree, citrus, pineapples, cotton, coffee, cocoa and vines; assay: Weed control in plantation crops (field trials, crop tolerance); format: in vivo; settings: natural weed infestation, various dosages, even at high rates of active substance
Procedure: In further field trials plantation crops were grown under conditions of natural weed infestation and sprayed with various dosages of the substances of formula (I) according to the invention.

Row | SMILES | herbicidal post-emergence activity against harmful plants [1] | pre-emergence control of harmful plants [2] | damage to plantation crops (visual assessment) [3] | melting point [°C]
1 | Cc1cc(C)c2c(c1)C(Nc1nc(N)nc(C(F)F)n1)CCC2 (racemic) [Compound 1.5] | very good herbicidal post-emergence activity | very good pre-emergence control | unharmed | 
2 | Cc1cccc2c1OCCC2Nc1nc(N)nc(C(F)F)n1 (racemic) [Compound 1.205] | very good herbicidal post-emergence activity | very good pre-emergence control | unharmed | 
3 | Cc1ccc2c(c1)[C@H](Nc1nc(N)nc(C(F)F)n1)CC2 [Compound 2.1] | very good herbicidal post-emergence activity | very good pre-emergence control | unharmed | 
4 | Cc1ccc2c(c1)[C@H](Nc1nc(N)nc(C(F)F)n1)CCC2 [Compound 2.2] | very good herbicidal post-emergence activity | very good pre-emergence control | unharmed | 
5 | Cc1ccc2c(c1)[C@H](Nc1nc(N)nc(C(F)F)n1)CCO2 [Compound 2.3] | very good herbicidal post-emergence activity | very good pre-emergence control | unharmed | 
6 | Cc1cc(C)c2c(c1)[C@H](Nc1nc(N)nc(C(F)F)n1)CCC2 [Compound 2.5] | very good herbicidal post-emergence activity | very good pre-emergence control | unharmed | 
7 | Nc1nc(N[C@@H]2CCOc3c(F)cccc32)nc(C(F)F)n1 [Compound 2.206, 6-(Difluoromethyl)-N-[(4R)-8-fluoro-3,4-dihydro-2H-chromen-4-yl]-1,3,5-triazine-2,4-diamine] | very good herbicidal post-emergence activity | very good pre-emergence control | unharmed | 
8 | Cc1ccc2c(c1)[C@H](Nc1nc(N)nc(C(F)F)n1)[C@@H](C)C2 [Compound 3.1, 6-(difluoromethyl)-N-[(1R,2S)-2,6-dimethyl-2,3-dihydro-1H-inden-1-yl]-1,3,5-triazine-2,4-diamine] | very good herbicidal post-emergence activity | very good pre-emergence control | unharmed | 132 to 134
9 | CC[C@H]1Cc2ccc(C)cc2[C@@H]1Nc1nc(N)nc(C(F)F)n1 [Compound 3.31] | very good herbicidal post-emergence activity | very good pre-emergence control | unharmed | 
10 | C[C@H]1Cc2ccc(Br)cc2[C@@H]1Nc1nc(N)nc(C(F)F)n1 [Compound 3.82] | very good herbicidal post-emergence activity | very good pre-emergence control | unharmed | 
11 | CC(=O)Nc1nc(N[C@H]2c3cc(C)ccc3C[C@@H]2C)nc(C(F)F)n1 [Compound 3.106] | very good herbicidal post-emergence activity | very good pre-emergence control | unharmed | 
12 | CCC(=O)Nc1nc(N[C@H]2c3cc(C)ccc3C[C@@H]2C)nc(C(F)F)n1 [Compound 3.109, N-(4-(difluoromethyl)-6-{[(1R,2S)-2,6-dimethyl-2,3-dihydro-1H-inden-1-yl]-amino}-1,3,5-triazin-2-yl)propanamide] | very good herbicidal post-emergence activity | very good pre-emergence control | unharmed | 
13 | Cc1ccc2c(c1)[C@H](Nc1nc(NC(=O)C(C)(C)C)nc(C(F)F)n1)[C@@H](C)C2 [Compound 3.112] | very good herbicidal post-emergence activity | very good pre-emergence control | unharmed | 
14 | Cc1ccc2c(c1)[C@H](Nc1nc(NC=O)nc(C(F)F)n1)[C@@H](C)C2 [Compound 3.118, N-[4-(difluoromethyl)-6-{[(1R,2S)-2,6-dimethyl-2,3-dihydro-1H-inden-1-yl]amino}-1,3,5-triazin-2-yl]-formamide] |  |  |  | 66
